Test results from ChEMBL document CHEMBL5244235, “Diarylpentanoids with antitumor activity: A critical review of structure-activity relationship studies” (Eur J Med Chem, 2020).

Key:
[1] = system: P388; test: Antiproliferative activity against mouse P388 cells assessed as cell growth inhibition; format: functional, cell-based
[2] = Antiproliferative activity against human Molt 4/C8 cells assessed as cell growth inhibition; format: functional, cell-based; details: Molt4/C8
[3] = system: CCRF-CEM; test: Antiproliferative activity against human CEM cells assessed as cell growth inhibition; format: functional, cell-based
[4] = system: L1210; test: Antiproliferative activity against mouse L1210 cells assessed as cell growth inhibition; format: functional, cell-based
[5] = system: RPMI-7951; test: Growth inhibition of human RPMI-7951 cells measured after 72 hrs by microplate reader analysis; format: functional, cell-based; details: for GI50: RPMI-7951, time 72 hrs
[6] = system: MDA-MB-231; test: Growth inhibition of human MDA-MB-231 cells measured after 72 hrs by microplate reader analysis; format: functional
[7] = system: 8505C; test: Antiproliferative activity against human 8505C cells assessed as cell growth inhibition measured after 72 hrs; format: functional, cell-based
[8] = system: PC-3; test: Antiproliferative activity against human PC-3 cells assessed as cell growth inhibition measured after 72 hrs; format: functional, cell-based; details: PC-3, 72 h
[9] = system: HCT-116; test: Antiproliferative activity against human HCT-116 cells assessed as cell growth inhibition measured after 72 hrs; format: functional, cell-based; details: HCT-116, 72 h
[10] = system: A-431; test: Antiproliferative activity against human A-431 cells assessed as cell growth inhibition measured after 72 hrs; format: functional, cell-based; details: A-431, 72 h
[11] = system: GCIY; test: Antiproliferative activity against human GCIY cells assessed as cell growth inhibition measured after 72 hrs; format: functional, cell-based
[12] = system: G-361; test: Antiproliferative activity against human G-361 cells assessed as cell growth inhibition measured after 72 hrs; format: functional, cell-based; details: G-361, 72 h
[13] = system: Huh-7; test: Antiproliferative activity against human Huh-7 cells assessed as cell growth inhibition measured after 72 hrs; format: functional, cell-based; details: Huh-7, 72 h
[14] = Antiproliferative activity against human PK-1 cells assessed as cell growth inhibition measured after 72 hrs; format: functional, cell-based; details: PK-1, 72 h
[15] = Antiproliferative activity against human SH-10-TC cells assessed as cell growth inhibition measured after 72 hrs; format: functional, cell-based
[16] = system: MCF7; test: Antiproliferative activity against human MCF7 cells assessed as cell growth inhibition measured after 72 hrs; format: functional, cell-based; details: MCF7, 72 h
[17] = system: ACHN; test: Antiproliferative activity against human ACHN cells assessed as cell growth inhibition measured after 72 hrs; format: functional, cell-based
[18] = system: DLD-1; test: Antiproliferative activity against human DLD-1 cells assessed as cell growth inhibition measured after 72 hrs; format: functional, cell-based; details: DLD-1, 72 h
[19] = Antiproliferative activity against human OVK18 cells assessed as cell growth inhibition measured after 72 hrs; format: functional, cell-based; details: OVK18, 72 h
[20] = system: A549; test: Antiproliferative activity against human A549 cells assessed as cell growth inhibition measured after 72 hrs; format: functional, cell-based; details: A549, 72 h
[21] = system: HuCCT-1; test: Antiproliferative activity against human HuCCT-1 cells assessed as cell growth inhibition measured after 72 hrs; format: functional, cell-based; details: HuCCT-1, 72 h

IC50 [1] [nM] | IC50 [3] [nM] | IC50 [4] [nM] | Compound | IC50 [2] [nM] | further results
810 | 810 | 810 | COc1ccc(/C=C2\CNC/C(=C\c3ccc(OC)cc3)C2=O)cc1 | 810 | –
280 | 280 | 280 | C=CC(=O)N1C/C(=C\c2ccc(Cl)c(Cl)c2)C(=O)/C(=C/c2ccc(Cl)c(Cl)c2)C1 | 280 | –
280 | 280 | 280 | C=CC(=O)N1C/C(=C\c2ccc(Cl)cc2)C(=O)/C(=C/c2ccc(Cl)cc2)C1 | 280 | –
810 | 810 | 810 | O=C1/C(=C/c2ccccc2)CNC/C1=C\c1ccccc1 | 810 | –
810 | 810 | 810 | O=C1/C(=C/c2ccc(Cl)c(Cl)c2)CNC/C1=C\c1ccc(Cl)c(Cl)c1 | 810 | –
280 | 280 | 280 | C=CC(=O)N1C/C(=C\c2ccc(OC)cc2)C(=O)/C(=C/c2ccc(OC)cc2)C1 | 280 | –
280 | 280 | 280 | C=CC(=O)N1C/C(=C\c2ccccc2)C(=O)/C(=C/c2ccccc2)C1 | 280 | –
221 | 1610 | 5340 | O=C1/C(=C/c2ccccc2)CN(C(=O)/C=C/c2ccccc2)C/C1=C\c1ccccc1 | 1600 | –
280 | 280 | 280 | C=CC(=O)N1C/C(=C\c2ccc(N(C)C)cc2)C(=O)/C(=C/c2ccc(N(C)C)cc2)C1 | 280 | –
– | – | – | CC(=O)Oc1ccccc1/C=C/C(=O)/C=C/c1ccccc1OC(C)=O | – | GI50 [5]: 2300 nM; GI50 [6]: 1000 nM
810 | 810 | 810 | O=C1/C(=C/c2ccc(Cl)cc2)CNC/C1=C\c1ccc(Cl)cc1 | 810 | –
280 | 280 | 280 | C=CC(=O)N1C/C(=C\c2ccc(F)cc2)C(=O)/C(=C/c2ccc(F)cc2)C1 | 280 | –
810 | 810 | 810 | O=C1/C(=C/c2ccc(F)cc2)CNC/C1=C\c1ccc(F)cc1 | 810 | –
– | – | – | O=C1/C(=C/c2ccccc2F)COC/C1=C\c1ccccc1F | – | GI50 [5]: 800 nM; GI50 [6]: 800 nM
– | – | – | COc1ccc(/C=C2\CCC/C(=C\c3ccc(OC)c(OC)c3)C2=O)cc1OC | – | IC50 [7]: 10000 nM; IC50 [8]: 10000 nM; IC50 [9]: 10000 nM; IC50 [10]: 10000 nM; IC50 [11]: 10000 nM; IC50 [12]: 10000 nM; IC50 [13]: 10000 nM; IC50 [14]: 10000 nM; IC50 [15]: 10000 nM; IC50 [16]: 10000 nM; IC50 [17]: 10000 nM; IC50 [18]: 10000 nM; IC50 [19]: 10000 nM; IC50 [20]: 10000 nM; IC50 [21]: 10000 nM
– | – | – | COc1ccccc1/C=C/C(=O)/C=C/c1ccccc1OC | – | GI50 [5]: 2300 nM; GI50 [6]: 1000 nM
810 | 810 | 810 | CN(C)c1ccc(/C=C2\CNC/C(=C\c3ccc(N(C)C)cc3)C2=O)cc1 | 810 | –
221 | 1610 | 5340 | Cc1ccc(C(=O)/C=C/c2ccc(C(=O)N3C/C(=C\c4ccccc4)C(=O)/C(=C/c4ccccc4)C3)cc2)cc1C | 1600 | –
221 | 1610 | 5340 | O=C1/C(=C/c2ccccc2)CN(C(=O)/C=C/c2ccc3c(c2)OCO3)C/C1=C\c1ccccc1 | 1600 | –
– | – | – | O=C1/C(=C/c2ccccc2F)CNC/C1=C\c1ccccc1F | – | IC50 ([5]; RPMI-7951, 72 h): 700 nM; GI50 [6]: 800 nM

IC50 [1] [nM] | IC50 [3] [nM] | IC50 [4] [nM] | Compound | IC50 [2] [nM] | further results
– | 1610 | 5340 | O=C1/C(=C/c2ccccc2)CN(C(=O)c2ccc(/C=C/C(=O)c3ccc([N+](=O)[O-])cc3)cc2)C/C1=C\c1ccccc1 | 1600 | –
221 | 1610 | 5340 | O=C1/C(=C/c2ccccc2)CN(C(=O)c2ccc(/C=C/C(=O)c3ccccc3)cc2)C/C1=C\c1ccccc1 | 1600 | –
– | – | – | COc1cc(CCC(O)CCc2cc(OC)c(OC)c(OC)c2)cc(OC)c1OC | – | IC50 [7]: > 50000 nM; IC50 [8]: > 50000 nM; IC50 [9]: > 50000 nM; IC50 [10]: > 50000 nM; IC50 [11]: > 50000 nM; IC50 [12]: > 50000 nM; IC50 [13]: > 50000 nM; IC50 [14]: > 50000 nM; IC50 [15]: > 50000 nM; IC50 [16]: > 50000 nM; IC50 [17]: > 50000 nM; IC50 [18]: > 50000 nM; IC50 [19]: > 50000 nM; IC50 [20]: > 50000 nM; IC50 [21]: > 50000 nM
– | – | – | O=C1/C(=C/c2ccccc2O)COC/C1=C\c1ccccc1O | – | GI50 [5]: 800 nM; GI50 [6]: 800 nM
221 | 1610 | 5340 | O=C1/C(=C/c2ccccc2)CN(C(=O)c2ccc(/C=C/C(=O)c3ccc(Cl)c(Cl)c3)cc2)C/C1=C\c1ccccc1 | 1600 | –
221 | 1610 | – | O=C1/C(=C/c2ccccc2)CN(C(=O)c2ccc(/C=C/C(=O)c3ccc(O)cc3)cc2)C/C1=C\c1ccccc1 | 1600 | –
221 | 1610 | 5340 | O=C1/C(=C/c2ccccc2)CN(C(=O)/C=C/c2ccc(Cl)cc2)C/C1=C\c1ccccc1 | 1600 | –
221 | 1610 | 5340 | O=C1/C(=C/c2ccccc2)CN(C(=O)/C=C/c2ccc([N+](=O)[O-])cc2)C/C1=C\c1ccccc1 | 1600 | –
221 | 1610 | 5340 | Cc1ccc(/C=C/C(=O)N2C/C(=C\c3ccccc3)C(=O)/C(=C/c3ccccc3)C2)cc1 | 1600 | –
221 | 1610 | 5340 | COc1ccc(/C=C/C(=O)N2C/C(=C\c3ccccc3)C(=O)/C(=C/c3ccccc3)C2)cc1 | 1600 | –
221 | 1610 | 5340 | Cc1ccc(C(=O)/C=C/c2ccc(C(=O)N3C/C(=C\c4ccccc4)C(=O)/C(=C/c4ccccc4)C3)cc2)cc1 | 1600 | –
– | – | – | CCOC(C)COc1c(OC)cc(/C=C/C(=O)/C=C/c2cc(OC)c(OC)c(OC)c2)cc1OC (stereo unspecified) | – | IC50 [7]: 1000 nM; IC50 [8]: 1000 nM; IC50 [9]: 1000 nM; IC50 [10]: 1000 nM; IC50 [11]: 1000 nM; IC50 [12]: 1000 nM; IC50 [13]: 1000 nM; IC50 [14]: 1000 nM; IC50 [15]: 1000 nM; IC50 [16]: 1000 nM; IC50 [17]: 1000 nM; IC50 [18]: 1000 nM; IC50 [19]: 1000 nM; IC50 [20]: 1000 nM; IC50 [21]: 1000 nM
221 | 1610 | 5340 | COc1ccc(C(=O)/C=C/c2ccc(C(=O)N3C/C(=C\c4ccccc4)C(=O)/C(=C/c4ccccc4)C3)cc2)cc1OC | 1600 | –
221 | 1610 | 5340 | COc1ccc(C(=O)/C=C/c2ccc(C(=O)N3C/C(=C\c4ccccc4)C(=O)/C(=C/c4ccccc4)C3)cc2)cc1 | 1600 | –
221 | 1610 | 5340 | COc1ccc(/C=C/C(=O)N2C/C(=C\c3ccccc3)C(=O)/C(=C/c3ccccc3)C2)cc1OC | 1600 | –
221 | 1610 | 5340 | COc1cc(/C=C/C(=O)N2C/C(=C\c3ccccc3)C(=O)/C(=C/c3ccccc3)C2)cc(OC)c1OC | 1600 | –
221 | 1610 | 5340 | O=C1/C(=C/c2ccccc2)CN(C(=O)c2ccc(/C=C/C(=O)c3ccc(Cl)cc3)cc2)C/C1=C\c1ccccc1 | 1600 | –
221 | 1610 | 5340 | O=C1/C(=C/c2ccccc2)CN(C(=O)/C=C/c2ccc(Cl)c(Cl)c2)C/C1=C\c1ccccc1 | 1600 | –
– | – | – | COc1cc(/C=C/C(=O)/C=C/c2cccc(O)c2)cc(OC)c1OC | – | IC50 [7]: 1000 nM; IC50 [8]: 1000 nM; IC50 [9]: 1000 nM; IC50 [10]: 1000 nM; IC50 [11]: 1000 nM; IC50 [12]: 1000 nM; IC50 [13]: 1000 nM; IC50 [14]: 1000 nM; IC50 [15]: 1000 nM; IC50 [16]: 1000 nM; IC50 [17]: 1000 nM; IC50 [18]: 1000 nM; IC50 [19]: 1000 nM; IC50 [20]: 1000 nM; IC50 [21]: 1000 nM
– | – | – | CCOC(C)Oc1cccc(/C=C/C(=O)/C=C/c2cc(OC)c(OC)c(OC)c2)c1 (stereo unspecified) | – | IC50 [7]: 1000 nM; IC50 [8]: 1000 nM; IC50 [9]: 1000 nM; IC50 [10]: 1000 nM; IC50 [11]: 1000 nM; IC50 [12]: 1000 nM; IC50 [13]: 1000 nM; IC50 [14]: 1000 nM; IC50 [15]: 1000 nM; IC50 [16]: 1000 nM; IC50 [17]: 1000 nM; IC50 [18]: 1000 nM; IC50 [19]: 1000 nM; IC50 [20]: 1000 nM; IC50 [21]: 1000 nM

Compound | IC50 [1] [nM] | IC50 [3] [nM] | IC50 [4] [nM] | IC50 [2] [nM] | further results
C=CC(=O)N1C/C(=C\c2ccc([N+](=O)[O-])cc2)C(=O)/C(=C/c2ccc([N+](=O)[O-])cc2)C1 | 280 | 280 | 280 | 280 | –
O=C1/C(=C/c2ccc([N+](=O)[O-])cc2)CNC/C1=C\c1ccc([N+](=O)[O-])cc1 | 810 | 810 | 810 | 810 | –
